Drawing on US20050080113A1, “Medicinal compositions” (priority 2001, published 2005), this text covers melting point for 29 molecules.

Molecules are shown by their SMILES.

A word on the melting point: it is the temperature, or range, at which the solid turns liquid. In turn, `CCc1nc(-c2ccc(F)c(C)c2)c(-c2ccnc(N)c2)s1` [H 20-9, 4 [2 ethyl-4 (4 fluoro-3-methylphenyl)-1,3 thiazol-5 yl]-2 pyridylamine] came in with a melting point of 134 to 135 °C.

With `CCc1nc(-c2cccc(C(C)C)c2)c(-c2ccnc(N)c2)s1` [H 20-10, 4 [2 ethyl-4 [3 (1-methylethyl)phenyl]-1,3 thiazol-5 yl]-2 pyridylamine], the melting point is 80 to 81 °C.

`CCCc1cccc(-c2nc(CC)sc2-c2ccnc(N)c2)c1` [H 20-11, 4 [2 ethyl-4 (3-propylphenyl)-1,3 thiazol-5 yl]-2 pyridylamine]: the melting point is 72 to 74 °C.

`CCc1nc(-c2cccs2)c(-c2ccnc(N)c2)s1` [H 20-12, 4 [2 ethyl-4 (2 thienyl)-1,3 thiazol-5 yl]-2 pyridylamine] returned a melting point of 159 to 160 °C.

In turn, `Cc1cccc(-c2ncsc2-c2ccnc(N)c2)c1` [H 27-1, 4 [4 (3 methylphenyl)-1,3-thiazol-5 yl]-2 pyridylamine] displayed a melting point of 91 to 92 °C.

Molecule `Cc1nc(-c2cccc(Cl)c2)c(-c2ccnc(N)c2)s1` [H 27-2, 4 [4 (3 chlorophenyl)-2-methyl-1,3 thiazol-5 yl]-2 pyridylamine] showed a melting point of 142 to 143 °C.

The molecule `CCc1nc(-c2cccc(C)c2)c(-c2ccnc(NC(=O)C3CCCC3)c2)s1` [H 29-1, N-[4 [2 ethyl-4 (3-methylphenyl)-1,3 thiazol-5 yl]-2-pyridyl]cyclopentanecarboxamide] yielded a melting point of 123 to 125 °C.

In the case of `CC(=O)Nc1cc(-c2sc(C)nc2-c2cccc(Cl)c2)ccn1` [H 30-1, N-[4-[4-(3-chlorophenyl)-2-methyl-1,3-thiazol-5-yl]-2-pyridyl]acetamide], the melting point lay within 112 to 115 °C.

In turn, `CCCc1nc(-c2cccc(Cl)c2)c(-c2ccnc(NC(C)=O)c2)s1` [H 30-3, N-[4-[4-(3-chlorophenyl)-2-propyl-1,3-thiazol-5-yl]-2-pyridyl]acetamide] came in with a melting point of 144 to 145 °C.

The molecule `CCc1nc(-c2cccs2)c(-c2ccnc(NC(C)=O)c2)s1` [H 30-4, N-[4 [2 ethyl-4 (2-thienyl)-1,3 thiazol-5 yl]-2 pyridyl]acetamide] gave a melting point of 154 to 155 °C.

The molecule `CSc1ccc(-c2nc(-c3cccc(Cl)c3)c(-c3ccnc(NC(C)=O)c3)s2)cc1` [H 30-5, N-[4 [4 (3 chlorophenyl)-2 [4 (methylthio)phenyl]-1,3 thiazol-5 yl]-2-pyridyl]acetamide] gave a melting point of 207 to 208 °C.

`CCC(=O)Nc1cc(-c2sc(C)nc2-c2cccc(Cl)c2)ccn1` [H 30-7, N-[4-[4-(3-chlorophenyl)-2-methyl-1,3-thiazol-5-yl]-2-pyridyl]propionamide] gave a melting point of 134 to 135 °C.

Molecule `CCC(=O)Nc1cc(-c2sc(CC)nc2-c2cccc(Cl)c2)ccn1` [H 30-8, N-[4-[4-(3-chlorophenyl)-2-ethyl-1,3-thiazol-5-yl]-2-pyridyl]propionamide] registered a melting point of 132 to 133 °C.

On to `CCCc1nc(-c2cccc(Cl)c2)c(-c2ccnc(NC(=O)CC)c2)s1` [H 30-9, N-[4-[4-(3-chlorophenyl)-2-propyl-1,3-thiazol-5-yl]-2-pyridyl]propionamide], for which the melting point lay within 103 to 104 °C.

The molecule `CCC(=O)Nc1cc(-c2sc(CC)nc2-c2cccs2)ccn1` [H 30-10, N-[4 [2 ethyl-4 (2-thienyl)-1,3 thiazol-5 yl]-2 pyridyl]propionamide] displayed a melting point of 187 to 188 °C.

Turning to `CCC(=O)Nc1cc(-c2sc(-c3ccc(SC)cc3)nc2-c2cccc(Cl)c2)ccn1` [H 30-11, N-[4 [4 (3 chlorophenyl)-2 [4 (methylthio)phenyl]-1,3 thiazol-5 yl]-2-pyridyl]propionamide], the melting point lay in the range of 187 to 188 °C.

`CSc1ccc(-c2nc(-c3cccc(Cl)c3)c(-c3ccnc(NC(=O)C(C)(C)C)c3)s2)cc1` [H 30-12, N-[4 [4 (3 chlorophenyl)-2 [4 (methylthio)phenyl]-1,3 thiazol-5 yl]-2-pyridyl]pivalamide] showed a melting point of 119 to 120 °C.

As for `CCc1nc(-c2cccc(C)c2)c(-c2ccnc(NCC3CCCC3)c2)s1` [H 32, N-(cyclopentylmethyl)-4 [2-ethyl-4 (3 methylphenyl)-1,3 thiazol-5 yl]-2 pyridylamine], the melting point fell in the range of 67 to 69 °C.

`Cc1cccc(-c2nc(N)sc2-c2ccnc(N3CCOCC3)c2)c1` [H 34-1, [4 (3 methylphenyl)-5 (2-morpholino-4 pyridyl)-1,3 thiazol-2 yl]amine] returned a melting point of 188 to 189 °C.

Regarding `Cc1cccc(-c2nc(N)sc2-c2ccnc(NC3CCCC3)c2)c1` [H 34-3, [5 (2 cyclopentylamino-4-pyridyl)-4 (3 methylphenyl)-1,3 thiazol-2 yl]amine], the melting point lay within 169 to 170 °C.

In turn, `Nc1nc(-c2cccc(Cl)c2)c(-c2ccnc(N3CCCCC3)c2)s1` [H 35-1, [4 (3 chlorophenyl)-5 (2-piperidino-4 pyridyl)-1,3 thiazol-2 yl]amine] had a melting point of 206 to 208 °C.

`Cc1cccc(-c2nc(-c3ccc(S(C)(=O)=O)cc3)sc2N2C=CC=CC2N2CCCCC2)c1` (centres unmarked) [H 35-2, 4 (3 methylphenyl)-2 (4-methylsulfonylphenyl)-5 (2 piperidino-1 pyridyl)-1,3 thiazole]: the melting point fell in the range of 155 to 157 °C.

The molecule `Nc1nc(-c2ccc(F)cc2)c(-c2ccnc(NC3CCCCC3)c2)s1` [H 36-1, [5 (2 cyclohexylamino-4-pyridyl)-4 (4 fluorophenyl)-1,3 thiazol-2 yl]amine] had a melting point of 194 to 195 °C.

In turn, `CNc1nc(-c2cccc(C)c2)c(-c2ccnc(NC3CCCCC3)c2)s1` [H 36-2, N-methyl-[5 (2-cyclohexylamino-4 pyridyl)-4 (3 methylphenyl)-1,3 thiazol-2-yl]amine] showed a melting point of 211 to 212 °C.

Take `CNc1nc(-c2cccc(C)c2)c(-c2ccnc(NC3CCCC3)c2)s1` [H 36-3, N-methyl-[5 (2-cyclopentylamino-4 pyridyl)-4 (3 methylphenyl)-1,3 thiazol-2-yl]amine]: the melting point was 170 to 172 °C.

Regarding `CCc1nc(-c2cccc(C)c2)c(-c2ccnc(NC3CCCCC3)c2)s1` [H 36-4, N-cyclohexyl-4-[2-ethyl-4-(3-methylphenyl)-1,3-thiazol-5-yl]-2-pyridylamine], the melting point fell in the range of 110 to 112 °C.

Take `Cc1cccc(-c2nc(-c3ccc(S(C)(=O)=O)cc3)sc2-c2ccnc(NC3CCCCC3)c2)c1` [H 36-5, N-cyclohexyl-4-[4-(3-methylphenyl)-2-(4-methylsulfonylphenyl)-1,3-thiazol-5-yl]-2-pyridylamine]: the melting point was in the range of 197 to 199 °C.

`Cc1cccc(-c2nc(-c3ccc(S(C)(=O)=O)cc3)sc2-c2ccnc(NC3CCCC3)c2)c1` [H 36-7, N-cyclopentyl-4-[4-(3-methylphenyl)-2-(4-methylsulfonylphenyl)-1,3-thiazol-5-yl]-2-pyridylamine] showed a melting point of 154 to 156 °C.

Consider `Cc1cccc(-c2nc(-c3ccc(S(C)(=O)=O)cc3)sc2-c2ccnc(N3CCOCC3)c2)c1` [H 36-8, 4 (3 methylphenyl)-2 (4-methylsulfonylphenyl)-5 (2 morpholino-4 pyridyl)-1,3 thiazole], for which the melting point was in the range of 200 to 202 °C.
